Experiments:
[1] = tested on: TRAF3/PTEN knockdown HepG2 cell; assay: Cell proliferation assay (IncuCyte) of TRAF3/PTEN knockdown HepG2; format: cell-based, human
Description: (§1) Hepatocytes or cholangiocarcinoma cells were inoculated on a 96-well plate, and their cell proliferation was analyzed with IncuCyte (trademark) Si (Sartorius AG, Germany) in accordance with the manufacturer's instructions.
Specifically, 24 hours after the start of the culture of each of the PTKD #1HepG2 and the PTKD #1PHH obtained in Test Example 5, NIKSMI described above was added at a concentration of 9 μM. 48 Hours after that, the cells were recovered, and the mRNA of KRT19 was quantified, followed by immunoblotting.
Specifically, the NIK KD #1 or the NIK KD #2 was transfected into the PTKD #1HepG2 and the PTKD #1PHH obtained in Test Example 5 to provide a PTKDNIK #1 and a PTKDNIK #2, respectively. 72 Hours after the start of the culture of each of the cells, the cell was recovered, and the mRNA of KRT19 was quantified, followed by immunoblotting.
The above-mentioned cell proliferation analysis and the production of the cell growth curves were performed with IncuCyte (trademark).

[2] = tested on: human cholangiocarcinoma cell line HuCCT1; assay: Cell proliferation assay (IncuCyte) of cholangiocarcinoma cell line HuCCT1; format: cell-based
Description: (§2) A human hepatoma cell line HepG2, and human cholangiocarcinoma cell lines HuCCT1, HuCCA1, and KKU213 were obtained from the JCRB Cell Bank. The HepG2 and KKU213 cells were cultured in a Dulbecco's modified Eagle's medium (DMEM; Nacalai Tesque, Inc., Japan) having added thereto 10% heat-inactivated fetal calf serum (FCS; Gibco, USA). The HuCCT1 cells were cultured in an RPMI medium (Nacalai Tesque, Inc., Japan) containing 10% FCS. The HuCCA1 cells were cultured in D-MEM/Ham's F-12 (containing L-glutamine and phenol red) (Wako Pure Chemical Industries, Ltd., Japan) having added thereto 10% FCS. All the cells were cultured with a CO2 incubator at 37° C. The cells were detached with trypsin (Nacalai Tesque, Inc., Japan), and were passaged. Those cells were routinely examined for mycoplasma.
(§3) The transfection of siRNA or a plasmid into cells was performed with Lipofectamine RNAiMAX Transfection Reagent (Thermo Fisher Scientific, Inc., USA) or Lipofectamine 2000 (Thermo Fisher Scientific, Inc., USA), respectively, and with Opti-MEM (Thermo Fisher Scientific, Inc., USA). The transfection of the siRNA was performed as follows: the cells were dispersed at a concentration of 100,000 cells/mL; 10 μM of the siRNA was mixed into 100 μL of the Opti-MEM at a ratio of 1 μL, and the mixture was left at rest for 5 minutes; and then 3 μL of the RNAiMAX was mixed into the mixture, and the whole was left at rest for 15 minutes, followed by administration to the supernatant of the previously dispersed cells. Further, a medium change was performed 24 hours thereafter.
as §1
(§4) Two kinds of NIK siRNA (the NIK KD #1 and the NIK KD #2) were introduced into each of human cholangiocarcinoma cell lines HuCCT1, HuCCA1, and KKU213 to knock down MAP3K14 (NIK). […]

[3] = tested on: human cholangiocarcinoma cell line HuCCA1; assay: Cell proliferation assay (IncuCyte) of cholangiocarcinoma cell line HuCCA1; format: cell-based
Description: as §2, §3, §1, §4

[4] = NIK siRNA transfected, cell growth curve FIG. 14B

Compound	increase in proliferation rate of the HepG2 cell by knockdown of TRAF3 and PTEN [1, 4]	proliferation of cholangiocarcinoma cells ([2]; NIK siRNA introduced, FIG. 18)	proliferation of cholangiocarcinoma cells ([3]; NIK siRNA introduced, FIG. 19)	increase in proliferation rate of the HepG2 cell by knockdown of TRAF3 and PTEN ([1]; NIKSMI 9 μM, cell growth curve FIG. 14A)	proliferation of cholangiocarcinoma cells ([2]; 9 μM or 15 μM added at beginning of culture, FIG. 21A)	proliferation of cholangiocarcinoma cells ([3]; 9 μM or 15 μM added at beginning of culture, FIG. 21B)
NIK KD #2: siRNA of NIK, SEQ ID NO: 4 (sense) and 5 (antisense), from Thermo Fisher Scientific (sense GCAAAGAGCAAGAACCAAAUU; antisense UUUGGUUCUUGCUCUUUGCGU; listed as RNA, chemistry not given here)	blocked	significantly suppressed	significantly suppressed	–	–	–
NIK KD #1: siRNA of NIK, SEQ ID NO: 2 (sense) and 3 (antisense), from Thermo Fisher Scientific (sense CAAACGCAAAGAGCAAGAAUU; antisense UUCUUGCUCUUUGCGUUUGCA; listed as RNA, chemistry not given here)	blocked	significantly suppressed	significantly suppressed	–	–	–
COc1cc(C(N)=O)nc(-c2cccc(C#C[C@]3(O)CCN(C)C3=O)c2)c1 [NIKSMI, (R)-6-(3-((3-hydroxy-1-methyl-2-oxopyrrolidin-3-yl)ethynyl)phenyl)-4-methoxypicolinamide]	–	–	–	blocked	significantly suppressed	significantly suppressed
